Laboratory results reported in BindingDB's records for doi:10.1124/jpet.105.083964 (Taisho Pharmaceutical, 2005).
pKi: −log10 of the molar value.

How the values were obtained:
[1] = target: D(1A) dopamine receptor (Rattus norvegicus, UniProt P18901)
[2] = target: Muscarinic acetylcholine receptor M2 (Rattus norvegicus, UniProt P10980)
[3] = target: L-type calcium channel (Rattus norvegicus)
[4] = target: Corticotropin-releasing factor receptor 1 (Rattus norvegicus, UniProt P35353)
[5] = target: Gamma-aminobutyric acid (GABA) B receptor 1 (Rattus norvegicus, UniProt Q6MFX8)
[6] = target: Type-2 angiotensin II receptor (Bos taurus, UniProt G5E6F7)
[7] = target: Mu-type opioid receptor (Rattus norvegicus, UniProt P33535)
[8] = target: Neuronal acetylcholine receptor subunit alpha-9 (Rattus norvegicus, UniProt P43144)
[9] = target: Glucocorticoid receptor (Mus musculus, UniProt P06537)
[10] = target: Phosphodiesterase 3a (Cavia porcellus, UniProt C7DXW3)
[11] = target: Cholecystokinin receptor type A (Homo sapiens) (UniProt P32238)
[12] = target: D(2) dopamine receptor (Rattus norvegicus, UniProt P61169)
[13] = target: Insulin receptor (Rattus norvegicus) (UniProt P15127)
[14] = target: Beta-1 adrenergic receptor (Rattus norvegicus, UniProt P18090)
[15] = target: Sigma non-opioid intracellular receptor 1 (Rattus norvegicus, UniProt Q9R0C9)
[16] = target: B2 bradykinin receptor (Homo sapiens, UniProt P30411)
[17] = target: 5-hydroxytryptamine receptor 2A (Rattus norvegicus, UniProt P14842)
[18] = target: Prostaglandin G/H synthase 2 (Ovis aries, UniProt P79208)
[19] = target: Dual specificity calcium/calmodulin-dependent 3',5'-cyclic nucleotide phosphodiesterase 1A (Bos taurus, UniProt P14100)
[20] = target: Angiotensin-converting enzyme (Homo sapiens, UniProt P12821)
[21] = target: Adenosine receptor A1 (Rattus norvegicus, UniProt P25099)
[22] = target: Gamma-aminobutyric acid receptor subunit alpha-1 (Rattus norvegicus, UniProt P62813)
[23] = target: Endothelin-1 receptor (Rattus norvegicus) (UniProt P26684)
[24] = target: Adenosine receptor A2a (Rattus norvegicus, UniProt P30543)
[25] = target: Caspase-3 (Homo sapiens, UniProt P42574)
[26] = target: Platelet-activating factor receptor (Oryctolagus cuniculus)
[27] = target: PDGF receptor (Mus musculus)
[28] = target: Phosphodiesterase 5A (Homo sapiens)
[29] = target: Type-1 angiotensin II receptor A (Rattus norvegicus, UniProt P25095)
[30] = target: Interleukin-1 receptor (Mus musculus)
[31] = target: Tumor necrosis factor receptor (Homo sapiens)
[32] = target: cAMP-specific 3',5'-cyclic phosphodiesterase 4D (Homo sapiens, UniProt Q08499)
[33] = target: Substance-P receptor (Homo sapiens, UniProt P25103)
[34] = target: Glutamate receptor ionotropic, NMDA 1 (Rattus norvegicus, UniProt P35439)
[35] = target: Histamine H1 receptor (Cavia porcellus, UniProt P31389)
[36] = target: Vasoactive intestinal polypeptide receptor 1 (Homo sapiens, UniProt P32241)
[37] = target: 5-hydroxytryptamine receptor 1B (Rattus norvegicus, UniProt P28564)
[38] = target: Prostaglandin G/H synthase 1 (Rattus norvegicus, UniProt Q63921)
[39] = target: Nitric oxide synthase, endothelial (Homo sapiens, UniProt P29474)

Chain of Cholecystokinin receptor type A (Homo sapiens) (P32238 whole entry, looked up): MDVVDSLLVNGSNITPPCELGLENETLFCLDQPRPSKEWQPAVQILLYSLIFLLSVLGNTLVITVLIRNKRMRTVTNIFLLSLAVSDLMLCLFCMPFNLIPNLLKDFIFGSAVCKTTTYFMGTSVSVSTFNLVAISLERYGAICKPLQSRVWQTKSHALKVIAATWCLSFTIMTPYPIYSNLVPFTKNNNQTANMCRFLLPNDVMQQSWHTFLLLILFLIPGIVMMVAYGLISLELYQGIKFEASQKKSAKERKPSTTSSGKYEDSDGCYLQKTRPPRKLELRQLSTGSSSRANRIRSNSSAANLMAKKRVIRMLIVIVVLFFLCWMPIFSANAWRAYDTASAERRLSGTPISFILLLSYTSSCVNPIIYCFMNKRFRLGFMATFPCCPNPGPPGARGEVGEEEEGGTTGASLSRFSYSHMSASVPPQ
Chain of Mu-type opioid receptor (P33535 whole entry): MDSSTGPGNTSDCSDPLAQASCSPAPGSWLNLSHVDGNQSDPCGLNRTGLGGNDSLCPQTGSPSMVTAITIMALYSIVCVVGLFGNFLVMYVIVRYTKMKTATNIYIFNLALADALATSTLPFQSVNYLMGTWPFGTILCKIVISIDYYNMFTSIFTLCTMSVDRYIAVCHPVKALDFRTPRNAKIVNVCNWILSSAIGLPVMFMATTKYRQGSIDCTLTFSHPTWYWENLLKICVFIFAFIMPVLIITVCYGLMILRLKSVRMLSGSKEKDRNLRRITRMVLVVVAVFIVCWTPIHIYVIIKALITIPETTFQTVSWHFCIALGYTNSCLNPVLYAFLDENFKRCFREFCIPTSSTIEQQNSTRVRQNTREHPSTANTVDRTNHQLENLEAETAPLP
Chain of Vasoactive intestinal polypeptide receptor 1 (P32241 whole entry): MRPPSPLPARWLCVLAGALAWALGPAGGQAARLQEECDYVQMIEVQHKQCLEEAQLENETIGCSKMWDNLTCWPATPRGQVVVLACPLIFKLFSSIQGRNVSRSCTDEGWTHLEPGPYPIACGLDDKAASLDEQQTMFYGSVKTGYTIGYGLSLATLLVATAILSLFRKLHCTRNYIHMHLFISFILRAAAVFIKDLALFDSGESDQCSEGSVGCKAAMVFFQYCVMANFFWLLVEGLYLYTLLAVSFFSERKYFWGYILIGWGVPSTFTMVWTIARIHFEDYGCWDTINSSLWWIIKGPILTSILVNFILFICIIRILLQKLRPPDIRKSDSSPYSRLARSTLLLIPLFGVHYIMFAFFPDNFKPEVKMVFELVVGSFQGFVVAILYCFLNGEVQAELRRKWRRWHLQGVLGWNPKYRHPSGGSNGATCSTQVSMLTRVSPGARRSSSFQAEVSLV
Chain of cAMP-specific 3',5'-cyclic phosphodiesterase 4D (Q08499 whole entry): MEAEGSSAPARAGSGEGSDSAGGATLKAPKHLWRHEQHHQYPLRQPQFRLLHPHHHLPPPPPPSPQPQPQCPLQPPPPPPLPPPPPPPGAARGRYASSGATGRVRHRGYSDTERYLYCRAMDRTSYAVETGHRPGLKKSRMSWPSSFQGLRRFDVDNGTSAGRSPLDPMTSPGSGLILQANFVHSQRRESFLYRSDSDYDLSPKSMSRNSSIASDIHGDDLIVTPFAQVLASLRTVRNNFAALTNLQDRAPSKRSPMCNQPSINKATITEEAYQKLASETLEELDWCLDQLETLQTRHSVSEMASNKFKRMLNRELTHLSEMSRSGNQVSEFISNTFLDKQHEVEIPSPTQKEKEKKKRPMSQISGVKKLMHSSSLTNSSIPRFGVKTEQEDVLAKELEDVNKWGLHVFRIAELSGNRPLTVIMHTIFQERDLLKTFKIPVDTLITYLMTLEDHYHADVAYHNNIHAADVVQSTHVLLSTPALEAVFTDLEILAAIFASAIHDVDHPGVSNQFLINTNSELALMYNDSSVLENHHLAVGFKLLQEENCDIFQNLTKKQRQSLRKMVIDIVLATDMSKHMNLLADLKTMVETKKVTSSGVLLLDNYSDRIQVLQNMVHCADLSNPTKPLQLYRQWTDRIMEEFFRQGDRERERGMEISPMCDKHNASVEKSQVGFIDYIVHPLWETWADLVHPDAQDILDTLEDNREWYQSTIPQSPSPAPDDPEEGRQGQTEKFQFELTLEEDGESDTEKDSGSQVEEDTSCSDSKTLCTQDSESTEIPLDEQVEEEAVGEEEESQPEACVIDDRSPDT
Chain of D(2) dopamine receptor (P61169 whole entry): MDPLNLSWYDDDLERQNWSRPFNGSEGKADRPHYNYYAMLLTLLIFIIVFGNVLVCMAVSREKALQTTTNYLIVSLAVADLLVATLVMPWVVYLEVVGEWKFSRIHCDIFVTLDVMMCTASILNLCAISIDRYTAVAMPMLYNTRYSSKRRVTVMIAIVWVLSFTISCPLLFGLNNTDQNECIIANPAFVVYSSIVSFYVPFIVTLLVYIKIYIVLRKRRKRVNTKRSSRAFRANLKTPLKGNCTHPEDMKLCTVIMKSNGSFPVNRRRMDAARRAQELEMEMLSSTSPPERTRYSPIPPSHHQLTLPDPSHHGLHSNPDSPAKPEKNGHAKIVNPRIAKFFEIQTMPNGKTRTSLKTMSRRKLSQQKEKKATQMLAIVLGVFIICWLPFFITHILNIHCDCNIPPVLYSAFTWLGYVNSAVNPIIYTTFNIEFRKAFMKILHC
Chain of Histamine H1 receptor (P31389 whole entry): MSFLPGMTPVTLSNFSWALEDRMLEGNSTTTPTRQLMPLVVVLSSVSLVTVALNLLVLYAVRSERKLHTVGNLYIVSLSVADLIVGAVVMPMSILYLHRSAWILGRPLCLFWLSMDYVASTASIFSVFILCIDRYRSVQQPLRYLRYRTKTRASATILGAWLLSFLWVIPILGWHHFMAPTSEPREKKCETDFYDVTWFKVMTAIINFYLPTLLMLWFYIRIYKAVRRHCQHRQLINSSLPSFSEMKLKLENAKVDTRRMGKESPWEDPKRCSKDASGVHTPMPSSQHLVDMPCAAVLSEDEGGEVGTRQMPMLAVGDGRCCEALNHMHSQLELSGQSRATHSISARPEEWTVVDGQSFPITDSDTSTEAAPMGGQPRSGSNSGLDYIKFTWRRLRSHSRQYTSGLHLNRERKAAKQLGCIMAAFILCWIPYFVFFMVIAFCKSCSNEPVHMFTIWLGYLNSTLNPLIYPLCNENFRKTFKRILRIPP
Chain of Gamma-aminobutyric acid (GABA) B receptor 1 (Q6MFX8 whole entry): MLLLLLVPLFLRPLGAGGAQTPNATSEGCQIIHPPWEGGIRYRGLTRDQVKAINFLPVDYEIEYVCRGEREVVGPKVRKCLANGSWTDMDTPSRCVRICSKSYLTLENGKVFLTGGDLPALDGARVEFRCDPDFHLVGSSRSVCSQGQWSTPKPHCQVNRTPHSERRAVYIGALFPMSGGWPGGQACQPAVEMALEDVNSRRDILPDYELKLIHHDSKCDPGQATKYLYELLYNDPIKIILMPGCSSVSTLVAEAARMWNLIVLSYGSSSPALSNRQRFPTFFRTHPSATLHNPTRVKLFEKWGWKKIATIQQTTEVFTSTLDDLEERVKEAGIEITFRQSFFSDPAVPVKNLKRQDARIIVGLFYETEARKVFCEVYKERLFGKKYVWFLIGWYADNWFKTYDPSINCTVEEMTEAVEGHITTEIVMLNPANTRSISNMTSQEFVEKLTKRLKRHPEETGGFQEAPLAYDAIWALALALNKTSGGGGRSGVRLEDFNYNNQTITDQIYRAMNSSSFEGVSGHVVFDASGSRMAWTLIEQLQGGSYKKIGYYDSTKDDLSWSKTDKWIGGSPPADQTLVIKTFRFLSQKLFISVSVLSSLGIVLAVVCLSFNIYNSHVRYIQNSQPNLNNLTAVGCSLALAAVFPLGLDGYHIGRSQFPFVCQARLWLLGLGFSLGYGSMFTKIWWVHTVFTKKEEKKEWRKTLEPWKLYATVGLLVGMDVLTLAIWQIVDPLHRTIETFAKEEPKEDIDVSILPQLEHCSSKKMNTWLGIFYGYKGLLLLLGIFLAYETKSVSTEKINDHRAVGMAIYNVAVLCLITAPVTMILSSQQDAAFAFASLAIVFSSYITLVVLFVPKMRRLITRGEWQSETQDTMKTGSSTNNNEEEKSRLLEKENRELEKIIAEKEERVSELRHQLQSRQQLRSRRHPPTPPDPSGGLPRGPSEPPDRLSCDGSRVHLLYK
Chain of 5-hydroxytryptamine receptor 2A (P14842 whole entry): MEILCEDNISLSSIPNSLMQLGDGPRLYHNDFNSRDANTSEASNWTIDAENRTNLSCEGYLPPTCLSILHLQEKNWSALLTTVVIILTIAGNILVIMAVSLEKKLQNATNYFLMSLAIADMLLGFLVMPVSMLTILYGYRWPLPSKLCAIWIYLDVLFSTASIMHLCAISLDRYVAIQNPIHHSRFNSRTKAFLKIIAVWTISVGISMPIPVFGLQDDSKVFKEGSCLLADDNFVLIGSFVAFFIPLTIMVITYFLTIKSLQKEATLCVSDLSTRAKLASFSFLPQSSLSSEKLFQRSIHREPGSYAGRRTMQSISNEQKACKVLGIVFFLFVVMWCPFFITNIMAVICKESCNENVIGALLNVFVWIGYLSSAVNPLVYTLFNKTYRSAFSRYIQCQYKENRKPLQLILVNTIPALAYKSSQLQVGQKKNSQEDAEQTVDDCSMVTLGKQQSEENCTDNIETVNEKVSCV
Chain of Gamma-aminobutyric acid receptor subunit alpha-1 (P62813 whole entry): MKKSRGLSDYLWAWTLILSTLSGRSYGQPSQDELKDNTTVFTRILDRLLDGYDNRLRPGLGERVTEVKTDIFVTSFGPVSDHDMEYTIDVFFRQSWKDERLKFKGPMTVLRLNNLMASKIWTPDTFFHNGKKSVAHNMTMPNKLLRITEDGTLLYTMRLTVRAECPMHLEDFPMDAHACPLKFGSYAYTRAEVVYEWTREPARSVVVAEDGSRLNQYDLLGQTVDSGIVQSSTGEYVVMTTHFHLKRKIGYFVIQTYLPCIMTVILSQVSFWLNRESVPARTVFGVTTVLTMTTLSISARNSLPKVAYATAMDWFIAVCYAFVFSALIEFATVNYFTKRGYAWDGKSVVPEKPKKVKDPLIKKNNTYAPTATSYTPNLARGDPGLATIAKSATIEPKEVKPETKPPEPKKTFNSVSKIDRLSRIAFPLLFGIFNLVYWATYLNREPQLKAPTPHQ

- pKi [1]: < 5.00
- pKi [2]: < 5.00
- pKi [3]: < 5.00
- pKi [4]: < 5.00
- pKi [5]: < 5.00
- pKi [6]: < 5.00
- pKi [7]: < 5.00
- pKi [8]: < 5.00
- pKi [9]: < 5.00
- pKi [10]: < 5.00
- pKi [11]: < 5.00
- pKi [12]: < 5.00
- pKi [13]: < 5.00
- pKi [14]: < 5.00
- pKi [15]: < 5.00
- pKi [16]: < 5.00
- pKi [17]: < 5.00
- pKi [18]: < 5.00
- pKi [19]: < 5.00
- pKi [20]: < 5.00
- pKi [21]: < 5.00
- pKi [22]: < 5.00
- pKi [23]: < 5.00
- pKi [24]: < 5.00
- pKi [25]: < 5.00
- pKi [26]: < 5.00
- pKi [27]: < 5.00
- pKi [28]: < 5.00
- pKi [29]: < 5.00
- pKi [30]: < 5.00
- pKi [32]: < 5.00
- pKi [33]: < 5.00
- pKi [34]: < 5.00
- pKi [35]: < 5.00
- pKi [36]: < 5.00
- pKi [37]: < 5.00
- pKi [38]: < 5.00
- pKi [39]: < 5.00
Structure (SMILES): O/N=C/Nc1ccc(N2CCOCC2)c(Cl)c1 [N'-(3-Chloro-4-morpholinophenyl)-N-hydroxyformamidine]
- pKi [31]: < 5.00
